System: androgen receptor (AR) in LNCaP and/or VCaP cells
Assay: Androgen Receptor ELISA assay (AR degradation)
Type: cell-based
Settings: degradation of AR ELISA in LNCaP and/or VCaP cells; Table 2C; read-out: DC50 Code*
Procedure: Androgen Receptor ELISA Assay. […] The protocols used with VCaP cells are described below.
The cells were grown for a minimum of 3 days.
(2)(i) A 10× stock plate in media was made; (ii) 2.5 μL of the 1000× stock was transferred to a new 10× stock plate (use 12 channel pipet, start at A (DMSO control) work thru H. When 247.5 µL of media was added to this plate, it served as a 10× stock; (iii) made media+1 nM R1881 for making 10× stock plate; (iv) added 247.5 μL of media with 1 nM R1881 to each well of the 10× stock plate, mix.
Then 22 μL of 10× stock was added to cells and incubated for 5 hours. […] Media was aspirated, and 100 μL 1× cell lysis buffer/well was added. The cells were placed on a shaker located in a cold room for 10 minutes and shaken at speed 7. The lysate mixture was mix and 20 μL transferred to 100 μl of Diluent in ELISA plate (0.15 μg/ml-[…]). The lysate-diluent mixture was store at 4° C. overnight on a shaker located in a cold room at speed 5 (gentle swirl).
The lysate-diluent mixture was shaken for 30 minutes at 37° C. The mouse AR antibody, anti-mouse antibody, TMB, and STOP solution were allowed to come to room temperature. The 1×ELISA buffer included in kit was made and loaded in reservoir. Media from the plate was discarded, the ELISA plate was tapped hard on paper towel, and washed 4×200 μl ELISA wash buffer using a plate washer for the first three washes and an eight channel aspirator for the fourth wash to more thoroughly aspirate the solution.
Next, 100 μL/well of mouse AR detection Ab was added; the plate was covered and shaken at 37° C. for 1 hour; media was discarded from the plates, the plates tapped on a paper towel and washed four times with 200 μL ELISA wash buffer with a plate washer for the first three washes and an eight channel aspirator for the fourth wash; 100 μL/well of anti-mouse—HRP conjugated Ab (comes with the kit) was added; the plates was cover and shaken at 37° C. for 30 minutes; the TMB reagent was allowed to come to room temperature; the media from the plate was discarded, the plates tapped on paper towel, and washed four times with 200 μL ELISA wash buffer with a plate washer for the first three washes and an eight channel aspirator for the fourth wash; plates were tapped on paper towel; 100 μL TMB was added to each well and the plate shaken for 2 minutes—while watching color. STOP solution (100 μL) was added when light blue color developed.
Data was analyzed and plotted using GraphPad Prism software. Exemplary compounds of Tables 1A, 1B, and 1C were assayed and the data shown below in Tables 2A, 2B, and 2C. DC50 (nM) categories (degradation of AR ELISA in LNCaP and/or VCaP cells) of Tables 2A, 2B, and 2C are as follows: A<1 nM; 1≤B<10 nM; 10≤C<100 nM; D≥100 nM. Dmax (%) categories (degradation of AR ELISA in LNCaP and/or VCaP cells) of Table 2 are as follows: A≥70; 50≤B<70; C<50

Row | DC50 [nM] | SMILES
1 | < 1 | Cc1cc(O[C@H]2C(C)(C)[C@H](NC(=O)c3c(C)nc(N4CCC(CN(C(C)C)[C@H]5C[C@H](Oc6ccc7c(c6)C(=O)N(C6CCC(=O)NC6=O)C7=O)C5)CC4)nc3C)C2(C)C)cc(C)c1C#N (mixture of isomers) [compound 200, rac-N-((1r,3r)-3-(4-cyano-3,5-dimethylphenoxy)-2,2,4,4-tetramethylcyclobutyl)-2-(4-((((1r,3r)-3-((2-(2,6-dioxopiperidin-3-yl)-1,3-dioxoisoindolin-5-yl)oxy)cyclobutyl) (isopropyl)amino)methyl)piperidin-1-yl)-4,6-dimethylpyrimidine-5-carboxamide]
2 | < 1 | [2H]C([2H])([2H])Oc1cc(O[C@H]2C(C)(C)[C@H](NC(=O)c3cnc(N4CCC(CN(C(C)C)[C@H]5C[C@H](Oc6cc(OC([2H])([2H])[2H])c7c(c6)C(=O)N(C6CCC(=O)NC6=O)C7=O)C5)CC4)cn3)C2(C)C)ccc1C#N (mixture of isomers) [compound 202, rac-N-((1r,3r)-3-(4-cyano-3-(methoxy-d3)phenoxy)-2,2,4,4-tetramethylcyclobutyl)-5-(4-((((1r,3r)-3-((2-(2,6-dioxopiperidin-3-yl)-7-(methoxy-d3)-1,3-dioxoisoindolin-5-yl)oxy)cyclobutyl) (isopropyl)amino)methyl)piperidin-1-yl)pyrazine-2-carboxamide]
3 | < 1 | [2H]C([2H])([2H])Oc1cc(O[C@H]2C[C@H](N(CC3CCN(c4cnc(C(=O)N[C@H]5C(C)(C)[C@H](Oc6ccc(C#N)c(OC)c6)C5(C)C)cn4)CC3)C(C)C)C2)cc2c1C(=O)N(C1CCC(=O)NC1=O)C2=O (mixture of isomers) [compound 203, rac-N-((1r,3r)-3-(4-cyano-3-methoxyphenoxy)-2,2,4,4-tetramethylcyclobutyl)-5-(4-((((1r,3r)-3-((2-(2,6-dioxopiperidin-3-yl)-7-(methoxy-d3)-1,3-dioxoisoindolin-5-yl)oxy)cyclobutyl) (isopropyl)amino)methyl)piperidin-1-yl)pyrazine-2-carboxamide]
4 | < 1 | COc1cc(O[C@H]2C(C)(C)[C@H](NC(=O)c3c(C)nc(N4CCC(CN(C(C)C)[C@H]5C[C@H](Oc6ccc7c(c6)C(=O)N(C6CCC(=O)NC6=O)C7=O)C5)CC4)nc3C)C2(C)C)ccc1C#N (mixture of isomers) [compound 211, rac-N-((1r,3r)-3-(4-cyano-3-methoxyphenoxy)-2,2,4,4-tetramethylcyclobutyl)-2-(4-((((1r,3r)-3-((2-(2,6-dioxopiperidin-3-yl)-1,3-dioxoisoindolin-5-yl)oxy)cyclobutyl) (isopropyl)amino)methyl)piperidin-1-yl)-4,6-dimethylpyrimidine-5-carboxamide]
5 | < 1 | COc1cc(O[C@H]2C(C)(C)[C@H](NC(=O)c3ccc(N4CC5(CC(CN(C(C)C)[C@H]6C[C@H](Oc7ccc8c(c7)C(=O)N(C7CCC(=O)NC7=O)C8=O)C6)C5)C4)cc3)C2(C)C)ccc1C#N (mixture of isomers) [compound 216, rac-N-((1r,3r)-3-(4-cyano-3-methoxyphenoxy)-2,2,4,4-tetramethylcyclobutyl)-4-(6-((((1r,3r)-3-((2-(2,6-dioxopiperidin-3-yl)-1,3-dioxoisoindolin-5-yl)oxy)cyclobutyl) (isopropyl)amino)methyl)-2-azaspiro[3.3]heptan-2-yl)benzamide]

Second part, the compound before the results:

Row | SMILES | DC50 [nM]
6 | [2H]C([2H])([2H])Oc1cc(O[C@H]2C[C@H](N(CC3CCN(c4cnc(C(=O)N[C@H]5C(C)(C)[C@H](Oc6cc(C)c(C#N)c(C)c6)C5(C)C)cn4)CC3)C(C)C)C2)cc2c1C(=O)N(C1CCC(=O)NC1=O)C2=O (mixture of isomers) [compound 195, rac-N-((1r,3r)-3-(4-cyano-3,5-dimethylphenoxy)-2,2,4,4-tetramethylcyclobutyl)-5-(4-((((1r,3r)-3-((2-(2,6-dioxopiperidin-3-yl)-7-(methoxy-d3)-1,3-dioxoisoindolin-5-yl)oxy)cyclobutyl) (isopropyl)amino)methyl)piperidin-1-yl)pyrazine-2-carboxamide] | < 1
7 | COc1cc(O[C@H]2C[C@H](OC3CCN(c4ccc(C(=O)N[C@H]5C(C)(C)[C@H](Oc6cc(C)c(C#N)c(C)c6)C5(C)C)cc4)CC3)C2)cc2c1C(=O)N(C1CCC(=O)NC1=O)C2=O (mixture of isomers) [compound 197, rac-N-((1r,3r)-3-(4-cyano-3,5-dimethylphenoxy)-2,2,4,4-tetramethylcyclobutyl)-4-(4-((1r,3r)-3-((2-(2,6-dioxopiperidin-3-yl)-7-methoxy-1,3-dioxoisoindolin-5-yl)oxy)cyclobutoxy)piperidin-1-yl)benzamide] | < 1
8 | CC(C)N(CC1CN(c2ccc(C(=O)N[C@H]3C(C)(C)[C@H](Oc4ccc(C#N)c(Cl)c4)C3(C)C)cc2)C1)[C@H]1C[C@H](Oc2ccc3c(c2)C(=O)N(C2CCC(=O)NC2=O)C3=O)C1 (mixture of isomers) [compound 198, rac-N-((1r,3r)-3-(3-chloro-4-cyanophenoxy)-2,2,4,4-tetramethylcyclobutyl)-4-(3-((((1r,3r)-3-((2-(2,6-dioxopiperidin-3-yl)-1,3-dioxoisoindolin-5-yl)oxy)cyclobutyl) (isopropyl)amino)methyl)azetidin-1-yl)benzamide] | < 1
9 | CC(C)N(CC1CCN(c2cnc(C(=O)N[C@H]3C(C)(C)[C@H](Oc4ccc(C#N)c(Cl)c4)C3(C)C)cn2)CC1)[C@H]1C[C@H](Oc2cccc3c2CN(C2CCC(=O)NC2=O)C3=O)C1 (mixture of isomers) [compound 208, rac-N-((1r,3r)-3-(3-chloro-4-cyanophenoxy)-2,2,4,4-tetramethylcyclobutyl)-5-(4-((((1r,3r)-3-((2-(2,6-dioxopiperidin-3-yl)-1-oxoisoindolin-4-yl)oxy)cyclobutyl) (isopropyl)amino)methyl)piperidin-1-yl)pyrazine-2-carboxamide] | < 1
10 | Cc1cc(O[C@H]2C(C)(C)[C@H](NC(=O)c3cnc(N4CCC(CN(C(C)C)[C@H]5C[C@H](Oc6ccc7c(c6)C(=O)N(C6CCC(=O)NC6=O)C7)C5)CC4)cn3)C2(C)C)cc(C)c1C#N (mixture of isomers) [compound 212, rac-N-((1r,3r)-3-(4-cyano-3,5-dimethylphenoxy)-2,2,4,4-tetramethylcyclobutyl)-5-(4-((((1r,3r)-3-((2-(2,6-dioxopiperidin-3-yl)-3-oxoisoindolin-5-yl)oxy)cyclobutyl) (isopropyl)amino)methyl)piperidin-1-yl)pyrazine-2-carboxamide] | < 1
11 | COc1cc(O[C@H]2C[C@H](N(C)CC3CCN(c4cnc(C(=O)N[C@H]5C(C)(C)[C@H](Oc6cc(C)c(C#N)c(C)c6)C5(C)C)cn4)CC3)C2)cc2c1C(=O)N(C1CCC(=O)NC1=O)C2=O (mixture of isomers) [compound 218, rac-N-((1r,3r)-3-(4-cyano-3,5-dimethylphenoxy)-2,2,4,4-tetramethylcyclobutyl)-5-(4-((((1r,3r)-3-((2-(2,6-dioxopiperidin-3-yl)-7-methoxy-1,3-dioxoisoindolin-5-yl)oxy)cyclobutyl) (methyl)amino)methyl)piperidin-1-yl)pyrazine-2-carboxamide] | < 1
12 | COc1cc(O[C@H]2C[C@H](N3CCOC4(CCN(c5ccc(C(=O)N[C@H]6C(C)(C)[C@H](Oc7cc(C)c(C#N)c(C)c7)C6(C)C)cc5)CC4)C3)C2)cc2c1C(=O)N(C1CCC(=O)NC1=O)C2=O (mixture of isomers) [compound 220, rac-N-((1r,3r)-3-(4-cyano-3,5-dimethylphenoxy)-2,2,4,4-tetramethylcyclobutyl)-4-(4-((1r,3r)-3-((2-(2,6-dioxopiperidin-3-yl)-7-methoxy-1,3-dioxoisoindolin-5-yl)oxy)cyclobutyl)-1-oxa-4,9-diazaspiro[5.5]undecan-9-yl)benzamide] | < 1
13 | COCCN(CC1CCN(c2cnc(C(=O)N[C@H]3C(C)(C)[C@H](Oc4cc(C)c(C#N)c(C)c4)C3(C)C)cn2)CC1)[C@H]1C[C@H](Oc2cc3c(cc2OC)C(=O)N(C2CCC(=O)NC2=O)C3=O)C1 (mixture of isomers) [compound 222, rac-N-((1r,3r)-3-(4-cyano-3,5-dimethylphenoxy)-2,2,4,4-tetramethylcyclobutyl)-5-(4-((((1r,3r)-3-((2-(2,6-dioxopiperidin-3-yl)-6-methoxy-1,3-dioxoisoindolin-5-yl)oxy)cyclobutyl)(2-methoxyethyl)amino)methyl)piperidin-1-yl)pyrazine-2-carboxamide] | < 1
